From patent US10722501B2 (BAYER AKTIENGESELLSCHAFT, priority 2016, dated 2020)

molecular target: T1, recombinant full-length human prolyl endopeptidase (PREP) (Homo sapiens, UniProt P48147); assay: Biochemical human prolyl endopeptidase (PREP) assay with fluorescently labelled substrate; conditions: substrate Z-Gly-Pro-AMC 50 μM, 32° C., 60 min; some as mean values from multiple independent determinations
T1 construct: To recombinant full-length human prolyl endopeptidase (PREP, R&D-Systems, 4308-SE); purchased R&D-Systems 4308-SE
T1 sequence (P48147 1-710): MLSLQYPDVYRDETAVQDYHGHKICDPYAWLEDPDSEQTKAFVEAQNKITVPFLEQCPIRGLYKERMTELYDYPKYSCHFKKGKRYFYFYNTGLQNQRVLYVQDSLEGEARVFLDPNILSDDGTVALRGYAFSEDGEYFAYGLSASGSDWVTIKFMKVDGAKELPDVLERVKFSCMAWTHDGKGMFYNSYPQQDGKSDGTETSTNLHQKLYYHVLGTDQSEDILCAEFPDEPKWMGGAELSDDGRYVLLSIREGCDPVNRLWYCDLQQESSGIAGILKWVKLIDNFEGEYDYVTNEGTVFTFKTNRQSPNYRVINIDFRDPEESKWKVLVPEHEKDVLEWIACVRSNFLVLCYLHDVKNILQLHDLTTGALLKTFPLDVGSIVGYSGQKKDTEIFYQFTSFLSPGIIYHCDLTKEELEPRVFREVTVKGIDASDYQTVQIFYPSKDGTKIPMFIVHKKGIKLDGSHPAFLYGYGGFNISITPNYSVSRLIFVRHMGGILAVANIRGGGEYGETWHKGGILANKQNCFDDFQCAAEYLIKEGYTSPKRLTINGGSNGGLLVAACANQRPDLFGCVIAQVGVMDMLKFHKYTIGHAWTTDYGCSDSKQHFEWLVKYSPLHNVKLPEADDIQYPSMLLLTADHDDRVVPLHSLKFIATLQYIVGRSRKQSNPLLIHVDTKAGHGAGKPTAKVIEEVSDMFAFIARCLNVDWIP
How it was run: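 Initial rates of fluorescence increase from 50 μM Z-Gly-Pro-AMC cleavage (ex 360/em 465 nm, 60 min, 32° C) give percent PREP activity versus no-compound control, and IC50 is interpolated. Enzyme used at 0.4 nM (final, example) in Tris pH 7.5 with EDTA, GSH, BSA and Brij-35; compounds span 1 nM to 30 μM.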

Structure (SMILES) | IC50 [nM]
CC1Cc2nn(Cc3ccc(F)c(Cl)c3)c(=O)n2C(C(=O)N2CCC(F)(F)C2)C1 (racemic) [Example 331, (5RS,7RS)-2-(3-Chloro-4-fluorobenzyl)-5-[(3,3-difluoropyrrolidin-1-yl)carbonyl]-7-methyl-5,6,7,8-tetrahydro[1,2,4]triazolo[4,3-a]pyridin-3(2H)-one] | 0.68
O=C([C@@H]1CCCc2nn(Cc3cccc(Cl)n3)c(=O)n21)N1C[C@@H](F)[C@@H](F)C1 [Example 385, (5S)-2-[(6-Chloropyridin-2-yl)methyl]-5-{[(3R,4S)-3,4-difluoropyrrolidin-1-yl]carbonyl}-5,6,7,8-tetrahydro[1,2,4]triazolo[4,3-a]pyridin-3(2H)-one] | 1.8
O=C([C@@H]1CCCc2nn(Cc3cncc(C(F)(F)F)c3)c(=O)n21)N1CCCC1 [Example 535, (5S)-5-(Pyrrolidin-1-ylcarbonyl)-2-{[5-(trifluoromethyl)pyridin-3-yl]methyl}-5,6,7,8-tetrahydro[1,2,4]triazolo[4,3-a]pyridin-3(2H)-one] | 5.1
O=C([C@@H]1CCCc2nn(Cc3ccc(F)c(Cl)c3)c(=O)n21)N1CC[C@H](F)C1 [Example 454, (5S)-2-(3-Chloro-4-fluorobenzyl)-5-{[(3S)-3-fluoropyrrolidin-1-yl]carbonyl}-5,6,7,8-tetrahydro[1,2,4]triazolo[4,3-a]pyridin-3(2H)-one] | 0.063
O=C([C@@H]1CCCc2nn(Cc3ccc(F)c(Cl)c3)c(=O)n21)N1CC[C@H](O)C1 [Example 97, (5S)-2-(3-Chloro-4-fluorobenzyl)-5-{[(3S)-3-hydroxypyrrolidin-1-yl]carbonyl}-5,6,7,8-tetrahydro[1,2,4]triazolo[4,3-a]pyridin-3(2H)-one] | 6.5
CC1Cc2nn(Cc3ccc(C(F)(F)F)nc3)c(=O)n2C(C(=O)N2CC[C@H](F)C2)C1 (single isomer, unassigned) [Example 137] | 130
Cc1ccc(Cn2nc3n(c2=O)[C@H](C(=O)N2CC(C(F)F)C2)CCC3)cc1 [Example 149, (5S)-5-{[3-(Difluoromethyl)azetidin-1-yl]carbonyl}-2-(4-methylbenzyl)-5,6,7,8-tetrahydro[1,2,4]triazolo[4,3-a]pyridin-3(2H)-one] | 2.5
CCn1nc(C(F)(F)F)cc1Cn1nc2n(c1=O)[C@H](C(=O)N1C[C@@H](F)[C@@H](F)C1)CCC2 [Example 361, (5S)-5-{[(3R,4S)-3,4-Difluoropyrrolidin-1-yl]carbonyl}-2-{[1-ethyl-3-(trifluoromethyl)-1H-pyrazol-5-yl]methyl}-5,6,7,8-tetrahydro[1,2,4]triazolo[4,3-a]pyridin-3(2H)-one] | 1.2
O=C([C@@H]1CCCc2nn(Cc3cccc(Br)c3)c(=O)n21)N1CC[C@H](F)C1 [Example 213, (5S)-2-(3-Bromobenzyl)-5-{[(3S)-3-fluoropyrrolidin-1-yl]carbonyl}-5,6,7,8-tetrahydro[1,2,4]triazolo[4,3-a]pyridin-3(2H)-one] | 0.77
O=C(C1C(C(F)(F)F)CCc2nn(Cc3ccc(C(F)(F)F)nc3)c(=O)n21)N1CC(F)C1 (racemic) [Example 304, (5RS,6RS)-5-[(3-Fluoroazetidin-1-yl)carbonyl]-6-(trifluoromethyl)-2-{[6-(trifluoromethyl)pyridin-3-yl]methyl}-5,6,7,8-tetrahydro[1,2,4]triazolo[4,3-a]pyridin-3(2H)-one] | 35
Cc1ccc(Cn2nc3n(c2=O)C(C(=O)N2CCC4(C2)CC4(F)F)CCC3)cc1 (mixture of isomers) [Example 128, (5S)-{[(3RS)-1,1-Difluoro-5-azaspiro[2.4]hept-5-yl]carbonyl}-2-(4-methylbenzyl)-5,6,7,8-tetrahydro[1,2,4]triazolo[4,3-a]pyridin-3(2H)-one] | 46

Results, then the compound that gave them:

IC50 [nM] | Structure (SMILES)
24.8 | O=C(C1CCc2nn(Cc3ccnc(C(F)(F)F)c3F)c(=O)n21)N1CCC(F)(F)C1 (racemic) [Example 181, (5RS)-5-[(3,3-Difluoropyrrolidin-1-yl)carbonyl]-2-{[3-fluoro-2-(trifluoromethyl)pyridin-4-yl]methyl}-2,5,6,7-tetrahydro-3H-pyrrolo[2,1-c][1,2,4]triazol-3-one]
2.7 | O=C(C1CC(C(F)(F)F)Cc2nn(Cc3ccc(Cl)cn3)c(=O)n21)N1CCC(F)(F)C1 (single isomer, unassigned) [Example 567, (5RS,7RS)-2-[(5-Chloropyridin-2-yl)methyl]-5-[(3,3-difluoropyrrolidin-1-yl)carbonyl]-7-(trifluoromethyl)-5,6,7,8-tetrahydro[1,2,4]triazolo[4,3-a]pyridin-3(2H)-one]
10 | O=C([C@@H]1CCCc2nn(Cc3ccnc(C(F)(F)F)c3F)c(=O)n21)N1CCC2CC21 (mixture of isomers) [Example 205, (5S)-5-[(1 RS,5SR)-2-Azabicyclo[3.1.0]hex-2-ylcarbonyl]-2-{[3-fluoro-2-(trifluoromethyl)pyridin-4-yl]methyl}-5,6,7,8-tetrahydro[1,2,4]triazolo[4,3-a]pyridin-3(2H)-one]
3 | COc1ccc(Cn2nc3n(c2=O)C(C(=O)N2CCCC2)CCC3)cn1 (racemic) [Example 92, (5RS)-2-[(6-Methoxypyridin-3-yl)methyl]-5-(pyrrolidin-1-ylcarbonyl)-5,6,7,8-tetrahydro[1,2,4]triazolo[4,3-a]pyridin-3(2H)-one]
10 | Cc1ccc(Cn2nc3n(c2=O)C(C(=O)N2CCC4(C2)CC4(F)F)CCC3)cc1 (single isomer, unassigned) [Example 129, (5RS)-{[(3RS)-1,1-Difluoro-5-azaspiro[2.4]hept-5-yl]carbonyl}-2-(4-methylbenzyl)-5,6,7,8-tetrahydro[1,2,4]triazolo[4,3-a]pyridin-3(2H)-one]
1.9 | O=C(C1CCCc2nn(Cc3ccc(Cl)c(C(F)(F)F)c3)c(=O)n21)N1CCC(F)(F)C1 (racemic) [Example 43]
7.5 | O=C(C1CCCc2nn(Cc3ccc(Cl)cn3)c(=O)n21)N1CCCC1 (single isomer, unassigned) [Example 34, (5RS)-2-[(5-Chloropyridin-2-yl)methyl]-5-(pyrrolidin-1-ylcarbonyl)-5,6,7,8-tetrahydro[1,2,4]triazolo[4,3-a]pyridin-3(2H)-one]
0.11 | O=C([C@@H]1CCCc2nn(Cc3ccc(F)cc3F)c(=O)n21)N1C[C@@H](F)[C@@H](F)C1 [Example 489, (5S)-2-(2,4-Difluorobenzyl)-5-{[(3R,4S)-3,4-difluoropyrrolidin-1-yl]carbonyl}-5,6,7,8-tetrahydro[1,2,4]triazolo[4,3-a]pyridin-3(2H)-one]
5.9 | COc1ccc(Cn2nc3n(c2=O)[C@H](C(=O)N2CC(F)C2)CCC3)nc1 [Example 382, (5S)-5-[(3-Fluoroazetidin-1-yl)carbonyl]-2-[(5-methoxypyridin-2-yl)methyl]-5,6,7,8-tetrahydro[1,2,4]triazolo[4,3-a]pyridin-3(2H)-one]
98.5 | O=C(C1C(C(F)(F)F)CCc2nn(Cc3ncc(Cl)cc3Cl)c(=O)n21)N1CC(F)C1 (single isomer, unassigned) [Example 307, (5RS,6RS)-2-[(3,5-Dichloropyridin-2-yl)methyl]-5-[(3-fluoroazetidin-1-yl)carbonyl]-6-(trifluoromethyl)-5,6,7,8-tetrahydro[1,2,4]triazolo[4,3-a]pyridin-3(2H)-one]
